The text below walks through data of patent US10640506B2, “Cyclobutyl substituted pyrrolopyridine and pyrrolopyrimidines derivatives as JAK inhibitors” (Incyte Corporation, priority 2010, dated 2020).

Assay [1] concerns the target T1, JAK2 (a.a. 828-1132) (Homo sapiens, UniProt O60674).
T1 construct: JAK2 (a.a. 828-1132); His tag (N)
As to the kind of experiment: In vitro JAK kinase assay (HTRF, phosphorylation of biotinylated peptide), JAK2. It counts as biochemical. The note with it: 1 mM ATP, read-out: JAK2 IC50. The procedure: Compounds herein were tested for inhibitory activity of JAK targets according to the following in vitro assay described in Park et al., Analytical Biochemistry 1999, 269, 94-104. The catalytic domains of human JAK1 (a.a. 837-1142) and JAK2 (a.a. 828-1132) with an N-terminal His tag were expressed using baculovirus in insect cells and purified. The catalytic activity of JAK1 and JAK2 was assayed by measuring the phosphorylation of a biotinylated peptide. The phosphorylated peptide was detected by homogenous time resolved fluorescence (HTRF). […] Reactions were carried out at room temperature for 1 hour and then stopped with 20 μL 45 mM EDTA, 300 nM SA-APC, 6 nM Eu-Py20 in assay buffer (Perkin Elmer, Boston, Mass.). Binding to the Europium labeled antibody took place for 40 minutes and HTRF signal was measured on a Fusion plate reader (Perkin Elmer, Boston, Mass.). See Tables A-F for data related to compounds of the Examples (at 1 mM). Data is indicated as ranges, wherein “+” is less than 10 nM; “++” is 10 nM to 25 nM; “+++” is greater than 25 nM to 100 nM; and “++++” is greater than 100 nM. Greater than 25 nM to 100 nM specifies a range with a lower endpoint “at greater than 25 nM” and an upper endpoint at 100 nM.
In general terms: Time-resolved FRET reads energy transfer from a long-lived donor to a nearby acceptor.

The target of assay [2] is human JAK1 (a.a. 837-1142) (Homo sapiens, UniProt P23458). As to the kind of experiment: In vitro JAK kinase assay (HTRF, phosphorylation of biotinylated peptide), JAK1. The note with it: 1 mM ATP, read-out: JAK1 IC50. It counts as biochemical. The procedure:
Compounds herein were tested for inhibitory activity of JAK targets according to the following in vitro assay described in Park et al., Analytical Biochemistry 1999, 269, 94-104. The catalytic domains of human JAK1 (a.a. 837-1142) and JAK2 (a.a. 828-1132) with an N-terminal His tag were expressed using baculovirus in insect cells and purified. The catalytic activity of JAK1 and JAK2 was assayed by measuring the phosphorylation of a biotinylated peptide. The phosphorylated peptide was detected by homogenous time resolved fluorescence (HTRF). […] Reactions were carried out at room temperature for 1 hour and then stopped with 20 μL 45 mM EDTA, 300 nM SA-APC, 6 nM Eu-Py20 in assay buffer (Perkin Elmer, Boston, Mass.). Binding to the Europium labeled antibody took place for 40 minutes and HTRF signal was measured on a Fusion plate reader (Perkin Elmer, Boston, Mass.). […] Data is indicated as ranges, wherein “+” is less than 10 nM; “++” is 10 nM to 25 nM; “+++” is greater than 25 nM to 100 nM; and “++++” is greater than 100 nM. Greater than 25 nM to 100 nM specifies a range with a lower endpoint “at greater than 25 nM” and an upper endpoint at 100 nM.

Counter-ions that a name gives are not always drawn. Like-named read-outs stand apart in the source and are kept apart here. Bounds are passed on as bounds.

For orientation: IC50 means the concentration that inhibits the measured activity by half.

T1 sequence (O60674 828-1132): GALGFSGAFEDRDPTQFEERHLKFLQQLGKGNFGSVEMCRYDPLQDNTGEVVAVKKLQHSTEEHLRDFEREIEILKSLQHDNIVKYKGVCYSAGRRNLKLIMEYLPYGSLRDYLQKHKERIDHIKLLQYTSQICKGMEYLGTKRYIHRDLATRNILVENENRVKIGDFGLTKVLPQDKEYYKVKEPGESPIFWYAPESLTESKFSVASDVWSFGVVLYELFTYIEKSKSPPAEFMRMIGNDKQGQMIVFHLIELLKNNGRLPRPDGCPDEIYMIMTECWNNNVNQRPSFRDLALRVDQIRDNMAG
Chain of human JAK1 (a.a. 837-1142) (P23458 849-1154): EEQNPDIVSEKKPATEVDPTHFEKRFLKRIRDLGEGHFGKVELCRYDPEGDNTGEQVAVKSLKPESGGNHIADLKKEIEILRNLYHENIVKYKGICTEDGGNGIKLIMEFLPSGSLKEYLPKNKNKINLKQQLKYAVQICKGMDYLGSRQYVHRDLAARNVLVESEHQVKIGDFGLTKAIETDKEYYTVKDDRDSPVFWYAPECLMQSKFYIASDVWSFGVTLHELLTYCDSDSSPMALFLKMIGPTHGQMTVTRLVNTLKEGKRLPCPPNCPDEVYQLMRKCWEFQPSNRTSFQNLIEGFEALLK

On to `N#CC[C@]1(n2cc(-c3ncnc4[nH]ccc34)cn2)C[C@H](N2CCN(C(=O)c3cc(F)cc(F)c3)CC2)C1` [Example 8b, {trans-3-[4-(3,5-difluorobenzoyl)piperazin-1-yl]-1-[4-(7H-pyrrolo[2,3-d]pyrimidin-4-yl)-1H-pyrazol-1-yl]cyclobutyl}acetonitrile], for which the IC50 in assay [1] (Table B) and in assay [2] (Table B) was less than 0.01 µM in each case.
Regarding `N#CC[C@]1(n2cc(-c3ncnc4[nH]ccc34)cn2)C[C@@H](N2CCN(C(=O)c3cc(F)cnc3Cl)CC2)C1` [Example 9a, {cis-3-{4-[(2-chloro-5-fluoropyridin-3-yl)carbonyl]piperazin-1-yl}-1-[4-(7H-pyrrolo[2,3-d]pyrimidin-4-yl)-1H-pyrazol-1-yl]cyclobutyl}acetonitrile], the IC50 was more than 0.1 µM in assay [1] (Table A) and 0.01 to 0.025 µM in assay [2] (Table A).
In the case of `N#CC[C@]1(n2cc(-c3ncnc4[nH]ccc34)cn2)C[C@H](N2CCN(C(=O)c3cc(F)cnc3Cl)CC2)C1` [Example 9b, {trans-3-{4-[(2-chloro-5-fluoropyridin-3-yl)carbonyl]piperazin-1-yl}-1-[4-(7H-pyrrolo[2,3-d]pyrimidin-4-yl)-1H-pyrazol-1-yl]cyclobutyl}acetonitrile], the values for the IC50 in assay [1] (Table B) and in assay [2] (Table B) were 0.01 to 0.025 µM and less than 0.01 µM, respectively.
Consider `N#CC[C@]1(n2cc(-c3ncnc4[nH]ccc34)cn2)C[C@@H](N2CCN(C(=O)c3cncc(F)c3)CC2)C1` [Example 10a, {cis-3-{4-[(5-fluoropyridin-3-yl)carbonyl]piperazin-1-yl}-1-[4-(7H-pyrrolo[2,3-d]pyrimidin-4-yl)-1H-pyrazol-1-yl]cyclobutyl}acetonitrile], for which the IC50 in assay [1] (Table A) is more than 0.1 µM; in assay [2] (Table A), less than 0.01 µM.
In the case of `N#CC[C@]1(n2cc(-c3ncnc4[nH]ccc34)cn2)C[C@H](N2CCN(C(=O)c3cncc(F)c3)CC2)C1` [Example 10b, {trans-3-{4-[(5-fluoropyridin-3-yl)carbonyl]piperazin-1-yl}-1-[4-(7H-pyrrolo[2,3-d]pyrimidin-4-yl)-1H-pyrazol-1-yl]cyclobutyl}acetonitrile tris(trifluoroacetate) Salt], the values for the IC50 in assay [1] (Table B) and in assay [2] (Table B) were 0.025 to 0.1 µM and less than 0.01 µM, respectively.
With `N#CC[C@]1(n2cc(-c3ncnc4[nH]ccc34)cn2)C[C@@H](N2CCN(C(=O)c3ccnc(C(F)F)c3F)CC2)C1` [Example 11a, {cis-3-{4-[2-(difluoromethyl)-3-fluoroisonicotinoyl]piperazin-1-yl}-1-[4-(7H-pyrrolo[2,3-d]pyrimidin-4-yl)-1H-pyrazol-1-yl]cyclobutyl}acetonitrile], the results for the IC50 in assay [1] (Table A) and in assay [2] (Table A) were more than 0.1 µM and 0.01 to 0.025 µM, respectively.
As to `N#CC[C@]1(n2cc(-c3ncnc4[nH]ccc34)cn2)C[C@H](N2CCN(C(=O)c3ccnc(C(F)F)c3F)CC2)C1` [Example 11b, {trans-3-{4-[2-(difluoromethyl)-3-fluoroisonicotinoyl]piperazin-1-yl}-1-[4-(7H-pyrrolo[2,3-d]pyrimidin-4-yl)-1H-pyrazol-1-yl]cyclobutyl}acetonitrile], the IC50 is 0.025 to 0.1 µM in assay [1] (Table B) and less than 0.01 µM in assay [2] (Table B).
Consider `N#CC[C@]1(n2cc(-c3ncnc4[nH]ccc34)cn2)C[C@@H](N2CCN(C(=O)c3cc(F)cc(C#N)c3)CC2)C1` [Example 12a, 3-[(4-{cis-3-(cyanomethyl)-3-[4-(7H-pyrrolo[2,3-d]pyrimidin-4-yl)-1H-pyrazol-1-yl]cyclobutyl}piperazin-1-yl)carbonyl]-5-fluorobenzonitrile], for which the IC50 in assay [1] (Table A) is 0.025 to 0.1 µM; in assay [2] (Table A) it was less than 0.01 µM.
Turning to `N#CC[C@]1(n2cc(-c3ncnc4[nH]ccc34)cn2)C[C@H](N2CCN(C(=O)c3cc(F)cc(C#N)c3)CC2)C1` [Example 12b, 3-[(4-{trans-3-(cyanomethyl)-3-[4-(7H-pyrrolo[2,3-d]pyrimidin-4-yl)-1H-pyrazol-1-yl]cyclobutyl}piperazin-1-yl)carbonyl]-5-fluorobenzonitrile], the IC50 in assay [1] (Table B) was 0.01 to 0.025 µM; in assay [2] (Table B), less than 0.01 µM.
